Measurements taken from patent publication US7291641B2, “Derivatives of heterocycles with 5 members, their preparation and their use as medicaments” (Societe de Conseils de Recherches et d'Applications …, priority 1999, dated 2007).
Where a name gives a salt, the structure may show the parent alone.

Compound | melting point
CCCCOC(=O)NCCc1nc(-c2ccc(N3CCCC3)cc2)c[nH]1 (as salt: hydrochloride) [Example 317, butyl 2-[4-(4-pyrrolidin-1-ylphenyl)-1H-imidazol-2-yl]ethylcarbamate] | 165 to 166 °C
CCCCCCC(NC1CCC1)c1nc(-c2ccc(F)cc2)c[nH]1 (racemic) (as salt: hydrochloride) [Example 84, (R,S)-N-{1-[4-(4-fluorophenyl)-1H-imidazol-2-yl]heptyl}-cyclobutanamine] | 144 to 146 °C
CC(C)(C)c1cc(-c2c[nH]c(CCNC(=O)OCC3CCCCC3)n2)cc(C(C)(C)C)c1O (as salt: hydrochloride) [Example 329, cyclohexylmethyl 2-[4-(3,5-ditert-butyl-4-hydroxyphenyl)-1H-imidazol-2-yl]ethylcarbamate] | 111.5 °C
COc1ccc(-c2c[nH]c(CCNC(=O)OCCC(C)(C)C)n2)cc1 [Example 388, 3,3-dimethylbutyl 2-[4-(4-methoxyphenyl)-1H-imidazol-2-yl]ethylcarbamate] | 116.8 °C
CCCCCCC(NC1CCCCC1)c1nc(-c2ccc(F)cc2)c[nH]1 (centres unmarked) [Example 38, N-{1-[4-(4-fluorophenyl)-1H-imidazol-2-yl]heptyl}cyclohexanamine] | 190 to 192 °C
CC(C)CCCC(NC1CCCCC1)c1nc(-c2cccc(Br)c2)c[nH]1 (centres unmarked) [Example 37, N-{1-[4-(3-bromophenyl)-1H-imidazol-2-yl]-5-methylhexyl}-N-cyclohexylamine] | 236 to 238 °C
CS(=O)(=O)c1ccc(-c2c[nH]c([C@@H](NC3CCCCC3)C3CCCCC3)n2)cc1 [Example 138, N-{(S)-cyclohexyl[4-(4-methylsulphonylphenyl)-1H-imidazol-2-yl]methyl}cyclohexanamine] | 152 to 154 °C
CCCCOC(=O)NCCc1nc(-c2ccc(N3CCCC3)cc2)c[nH]1 [Example 313, butyl 2-[4-(4-pyrrolidin-1-ylphenyl)-1H-imidazol-2-yl]ethylcarbamate] | 125 °C
CCCCOC(=O)NCCc1nc(-c2ccc(C(F)(F)F)cc2)c[nH]1 [Example 300, butyl 2-{4-[4-(trifluoromethyl)phenyl]-1H-imidazol-2-yl}ethylcarbamate] | 104 to 105 °C
Brc1cccc(-c2c[nH]c([C@@H](NCC3CCCCC3)C3CCCCC3)n2)c1 (as salt: hydrochloride) [Example 306, (S)-1-[4-(3-bromophenyl)-1H-imidazol-2-yl]-1-cyclohexyl-N-(cyclohexylmethyl)methanamine] | 206.3 °C
CC(C)N[C@H](c1nc(-c2ccc(F)cc2)c[nH]1)C1CCCCC1 [Example 261, N-{(S)-cyclohexyl[4-(4-fluorophenyl)-1H-imidazol-2-yl]methyl}-2-propanamine] | 210 to 212 °C
CCCCCCC(NC1CCCCC1)c1nc(-c2ccc(Cl)c(Cl)c2)c[nH]1 (racemic) (as salt: hydrochloride) [Example 250, (R,S)-N-{1-[4-(3,4-dichlorophenyl)-1H-imidazol-2-yl]heptyl}-cyclohexanamine] | 194 °C
N[C@H](c1nc(-c2cccc(F)c2)c[nH]1)C1CCCCC1 (as salt: hydrochloride) [Example 311, (S)-1-cyclohexyl-1-[4-(3-fluorophenyl)-1H-imidazol-2-yl]methanamine] | 238 to 241 °C
CCCCOC(=O)NCCc1nc(-c2ccc(C(C)(C)C)cc2)c[nH]1 [Example 294, butyl 2-[4-(4-tert-butylphenyl)-1H-imidazol-2-yl]ethylcarbamate] | 106 to 108 °C
CCN(CC)c1ccc(-c2c[nH]c([C@@H](NC3CCCCC3)C3CCCCC3)n2)cc1 (as salt: hydrochloride) [Example 292, 4-{2-[(S)-cyclohexyl(cyclohexylamino)methyl]-1H-imidazol-4-yl}-N,N-diethylaniline] | 204 to 210 °C
CC(C)CCC(NC1CCCCC1)c1nc(-c2ccc(F)cc2)c[nH]1 (racemic) (as salt: hydrochloride) [Example 257, (R,S)-N-{1-[4-(4-fluorophenyl)-1H-imidazol-2-yl]4-methylpentyl}-cyclohexanamine] | 230 to 232 °C
CC(C)(C)OC(=O)NCCCc1nc(-c2ccc(-c3ccccc3)cc2)c[nH]1 [Example 171, 4-(2-{3-[(tert-butoxycarbonyl)amino]propyl}-1H-imidazol-4-yl)-1,1′-biphenyl] | 145 to 146 °C

More lines, now with the values ahead:

melting point | Compound
248 to 250 °C | NCc1nc(-c2ccccc2)cn1Cc1ccccc1 (as salt: hydrochloride) [Example 107, (1-benzyl-4-phenyl-1H-imidazol-2-yl)methanamine]
131 to 134 °C | CCCCCCC(N)c1nc(-c2ccccc2)c[nH]1 (racemic) (as salt: hydrochloride) [Example 142, (R,S)-1-(4-phenyl-1H-imidazol-2-yl)heptylamine]
109.5 °C | CCCCOC(=O)NCCc1nc(-c2ccc(-c3cc(F)ccc3F)cc2)c[nH]1 [Example 460, butyl 2-[4-(2′,5′-difluoro-1,1′-biphenyl-4-yl)-1H-imidazol-2-yl]ethylcarbamate]
90 °C | CCCCOC(=O)NCCc1nc(-c2ccc(-c3cccc(F)c3F)cc2)c[nH]1 [Example 455, butyl 2-[4-(2′,3′-difluoro-1,1′-biphenyl-4-yl)-1H-imidazol-2-yl]ethylcarbamate]
72 to 74 °C | CC(C)(C)OC(=O)N[C@H](CCc1ccccc1)c1nc(-c2ccccc2)c[nH]1 [Example 129, tert-butyl (1R)-3-phenyl-1-(4-phenyl-1H-imidazol-2-yl)propylcarbamate]
138 to 140 °C | CCCCCCOC(=O)NCCc1nc(-c2ccc(-c3ccc(Br)cc3)cc2)c[nH]1 [Example 381, hexyl 2-[4-(4′-bromo-1,1′-biphenyl-4-yl)-1H-imidazol-2-yl]ethylcarbamate]
228 to 230 °C | NCc1nc(-c2ccccc2)c[nH]1 (as salt: hydrochloride) [Example 51, (4-phenyl-1H-imidazol-2-yl)methanamine]
134 to 136 °C | O=C(NCCc1nc(-c2ccc(-c3ccccc3)cc2)c[nH]1)OCc1ccccc1 [Example 237, 4-[2-(2-{[(benzyloxy)carbonyl]amino}ethyl)-1H-imidazol-4-yl]-1,1′-biphenyl]
218 to 220 °C | O=C(N[C@H](Cc1c[nH]c2ccccc12)c1nc(-c2ccccc2)c[nH]1)c1ccccc1 [Example 98, N-[(1R)-2-(1H-indol-3-yl)-1-(4-phenyl-1H-imidazol-2-yl)ethyl]benzamide]
218 to 220 °C | CNCc1nc(-c2ccc(-c3ccccc3)cc2)c[nH]1 (as salt: hydrochloride) [Example 155, (4-[1,1′-biphenyl]-4-yl-1H-imidazol-2-yl)-N-methylmethanamine]
110 to 114 °C | Cn1cc(CC(N)c2nc(-c3ccccc3)c[nH]2)c2ccccc21 (racemic) (as salt: hydrochloride) [Example 92, (R,S)-2-(1-methyl-1H-indol-3-yl)-1-(4-phenyl-1H-imidazol-2-yl)ethylamine]
206 to 210 °C | Cn1cc(-c2ccccc2)nc1[C@H](N)Cc1c[nH]c2ccccc12 (as salt: hydrochloride) [Example 151, (1R)-2-(1H-indol-3-yl)-1-(1-methyl-4-phenyl-1H-imidazol-2-yl)ethanamine]
196 to 198 °C | N[C@H](CC1CCCCC1)c1nc(-c2ccccc2)c[nH]1 (as salt: hydrochloride) [Example 132, (1R)-2-cyclohexyl-1-(4-phenyl-1H-imidazol-2-yl)ethanamine]
140.5 °C | O=C(NCCc1nc(-c2ccc(-c3ccccc3)cc2)c[nH]1)OC1CCCC1 [Example 271, 4-[2-(2-{[(cyclopentyloxy)carbonyl]amino}ethyl)-1H-imidazol-4-yl]-1,1′-biphenyl]
173 °C | CC(C)(C)c1ccc(-c2c[nH]c(CCNC(=O)OCc3ccccc3)n2)cc1 [Example 382, benzyl 2-[4-(4-tert-butylphenyl)-1H-imidazol-2-yl]ethylcarbamate]
142 to 144 °C | c1ccc(CC[C@@H](NCc2ccccc2)c2nc(-c3ccccc3)c[nH]2)cc1 [Example 135, (1R)-N-benzyl-3-phenyl-1-(4-phenyl-1H-imidazol-2-yl)-1-propanamine]
152 to 154 °C | c1ccc(CN[C@H](Cc2csc3ccccc23)c2nc(-c3ccccc3)c[nH]2)cc1 [Example 111, (1R)-2-(1-benzothien-3-yl)-N-benzyl-1-(4-phenyl-1H-imidazol-2-yl)ethanamine]
114 to 116 °C | CCCCCCC(NC(C)C)c1nc(-c2ccccc2)c[nH]1 (racemic) [Example 248, (R,S)-N-isopropyl-N-[1-(4-phenyl-1H-imidazol-2-yl)heptyl]amine]
220 to 222 °C | CC[C@H](NCc1ccccc1)c1nc(-c2ccc(-c3ccccc3)cc2)c[nH]1 [Example 198, (1S)-N-benzyl-1-(4-[1,1′-biphenyl]4-yl-1H-imidazol-2-yl)-1-propanamine]
115 to 116 °C | CCCCCCC(NCc1ccccc1)c1nc(-c2cccc(Br)c2)c[nH]1 (racemic) (as salt: acetate) [Example 193, (R,S)-N-benzyl-1-[4-(3-bromophenyl)-1H-imidazol-2-yl]-1-heptanamine]
109.6 °C | CCCCOC(=O)NCCc1nc(-c2ccc(-c3ccccc3Br)cc2)c[nH]1 [Example 456, butyl 2-[4-(2′-bromo-1,1′-biphenyl-4-yl)-1H-imidazol-2-yl]ethylcarbamate]
156 to 158 °C | CCC[C@@H](NC(=O)OC(C)(C)C)c1nc(-c2ccccc2)c[nH]1 [Example 207, tert-butyl (1R)-1-(4-phenyl-1H-imidazol-2-yl)butylcarbamate]
137.5 °C | CCCCOC(=O)NCCc1nc(-c2ccc(-c3ccc(Cl)c(Cl)c3)cc2)c[nH]1 [Example 448, butyl 2-[4-(3′,4′-dichloro-1,1′-biphenyl-4-yl)-1H-imidazol-2-yl]ethylcarbamate]
177.2 °C | COC(=O)NCCc1nc(-c2ccc(-c3ccccc3)cc2)c[nH]1 [Example 244, 4-(2-{2-[(methoxycarbonyl)amino]ethyl}-1H-imidazol-4-yl)-1,1′-biphenyl]
